“Also recorded” adds a separate entry of the source.
Legend:
IL-6 = assay: Anti-inflammatory assay, IL-6 in LPS-stimulated THP-1 cells (CBA); type: cell-based, human; settings: 2 and 4 µg/mL, 24 h
Procedure: (§1) For this assay, THP-1 (BCRJ cód. 0234) cells were cultured in Roswell Park Memorial Institute (RPMI-1640, Sigma-Aldrich; Saint Louis, MO, USA) media supplemented with 2 mM L-glutamine, 1 mM sodium pyruvate, 1.50 g/L of sodium bicarbonate, and 10% fetal bovine serum. For obtaining Macrophage-like cells, 250,000 cells per well were plated in a 24-well cell culture plate. A total of 20 ng/mL of Forbol 12-miristato-13-acetato (PMA) was added to each well, and the cells were incubated for 48 h at 37 °C with 5% CO2. After the 48 h, the wells were washed with 1X PBS, and fresh RPMI-1640 media was added. The cells were then incubated for 24 h at 37 °C and 5% CO2. For the cell’s stimulations, after the 24 h, the well was washed with PBS and fresh RPMI1640 media without fetal bovine serum added. For the positive controls of the assay, 3 wells were stimulated with LPS (1 ng/µL) diluted in the same volume and media used for the drugs stimulation. Two different concentrations (2 and 4 µg/mL) were evaluated for each molecule, which were determined to be non-cytotoxic through a cell viability assay. After a 24 h period, the supernatant was removed and used in the cytokine quantification assay. A kit for inflammatory cytokines, BD® Cytometric Bead Array CBA Human Inflammatory, was employed for this assay, containing the following human cytokines: IL-8, IL-1β, IL-6, and TNF. […]

IL-1β = assay: Anti-inflammatory assay, IL-1β in LPS-stimulated THP-1 cells (CBA); type: cell-based, human; settings: 2 and 4 µg/mL, 24 h
Procedure: as §1

Kinetic solubility = type: physicochemical
Procedure: To determine kinetic solubility, stock solutions of test compounds and controls [Amiodarone hydrochloride (Sigma-Aldrich, St. Louis, MO, USA), Diclofenac (Oakwood Chemical, Estill, SC, USA), Chloramphenicol (Sigma-Aldrich, St. Louis, MO, USA), and Itraconazole (Sigma-Aldrich, St. Louis, MO, USA)] were prepared at 10 mM in DMSO. A volume of 5 µL from each stock solution was transferred to designated wells of a 96-well incubation plate in duplicate. Subsequently, 195 µL of phosphate-buffered saline (PBS) at pH 7.4 or 2.0 was added to achieve a final compound concentration of 250 µM (final DMSO concentration ≤ 2.5%). The plate was sealed and subjected to shaking at 200 rpm for 24 ± 1 h at room temperature (25 °C). Following the incubation period, the plate was centrifuged at 3000 rpm for 15 min at 25 °C to remove precipitates. A 100 µL aliquot of the supernatant from each well was transferred to a corresponding well in a new 96-well plate. The samples were subsequently analyzed by an LCMS-8045 system (Shimazu, Kyoto, Japan). To quantify the solubilized fraction, a calibration curve was prepared for each test compound and control. From the 10 mM stock solution, an intermediate standard solution (0.5 mM) was prepared in a 1:1 acetonitrile:water mixture. Serial dilutions of this intermediate solution were performed to obtain final concentrations of 50, 40, 20, 2, and 1 µM. […]

solubility class (Kinetic solubility; kinetic solubility pH 7.4): moderate-to-high solubility
solubility at 24 h (Kinetic solubility; phosphate-buffered saline, aqueous buffer, kinetic from dmso stock, PBS pH 7.4, 24 h, 25 °C, read-out: Kinect Solubility (KS) pH = 7.4): > 39.6 µg/mL
SMILES: COc1cccc(C(=O)/C=C/c2cccc(B(O)O)c2)c1 [Compound 5, (E)-(3-(3-(3-methoxyphenyl)-3-oxoprop-1-en-1-yl)phenyl)boronic acid]
reduction of IL-6 levels (IL-6): significantly reduced; also recorded: pronounced reduction
reduction of IL-1β levels (IL-1β): comparable efficacy in reducing cytokine levels relative to LPS-stimulated cells

Source: PMC12301034, “Design and Synthesis of Boronic Chalcones with Dual Anticancer and Anti-Inflammatory Activity” (Molecules, 2025)
